Test results from patent US9649268B2, “Glucuronolactone derivatives as self-tanning substances” (MERCK PATENT GMBH, priority 2011, dated 2017).

What was measured:
[1] = Liquid skin model (reaction with L-lysine, L*a*b* values); conditions: after 24 hours; for L* / a* / b*: 1 mmol compound + 1 mmol L-lysine, phosphate-buffered water (pH=7)/ethylene glycol
Protocol: The mixture is subsequently made up to the mark with a mixture of 6 ml of phosphate-buffered water (pH=7) and 94 ml of ethylene glycol. The reaction is observed with vigorous stirring, and the L*a*b* values are determined after 24 hours.

[2] = Stability/odour of test formulations on storage; type: physicochemical; conditions: formulation with 5% active compound (mixture: 5% DHA + 1% compound Ia), stored at 40° C. for 8 weeks
Protocol: In order to compare the odour and stability of glucuronolactone, glucuronolactone acetonide of the formula (Ia), DHA and a combination in a formulation, 5 formulations are prepared: one without active compound as placebo, one with 5% of glucuronolactone, one with 5% of compound (Ia), one with 5% of DHA and one with 5% of DHA+1% of compound (Ia) (denoted by “active compound” in the recipe).
The following recipe is used:
Sources of Supply: (1) Sasol Germany GmbH, (2) Cognis GmbH, (3) Hansen&Rosenthal KG, (4) Merck KGaA/Rona®, (5) Alfa Aesar Preparation of the Formulations: […]
Heat phase A, heat phase B, prepare phase C on a magnetic stirrer (first introduce water, then add thickener), then homogenise phase C with phase B using an Ultra-Turrax and at the same time slowly add phase A. Subsequently add phase D and likewise homogenise well.
In the case of the 5th cream (with DHA and glucuronolactone acetonide), adjust the water proportion correspondingly.

[3] = tested on: histological explants from the lower abdomen tissue of a person; assay: Ex-vivo study on skin explants, chromametric measurement (ITA); design: species or system human; conditions: for Day 5 (ITA value): 30 μl on 5 consecutive days, 2 h
Protocol: 24 histological explants having an average diameter of 10 mm are prepared from the lower abdomen tissue of a person. The pieces of tissue are kept in BEM medium (BIO-EC's explants medium) at 37° C. in a humid atmosphere comprising 5% of CO2.
The tissue is divided into 8 batches of 3 explants each:
30 μl of the substance solutions are applied on 5 consecutive days using a round filter paper and left to act for 2 h. On days 0, 5 and 8, tissue sections with a thickness of 5 μm are prepared from the explants. These sections are investigated morphologically and measured chromametrically.
The colour measurements are carried out using a Minolta CR-300 Chroma-meter, and the L, a and b values are read off correspondingly on the instrument.
Principle of the Chromametric Measurement:
The following parameters are set:
In 1931, a test series was carried out by the CIE (Commision Internationale de L'Eclairage), where the “2-degree standard observer” was defined. A colour area is present here which is viewed at a viewing angle of 2 degrees. This viewing angle is used as standard in the chromametric measurement. • Irradiation source D65, corresponding to daylight • Region of the measurement: 3 mm • Parameters used: L* a* b*
The sample is placed on the bearing rail with the epidermis facing downwards. The irradiation is carried out from the underside through the area indicated (3 mm).
In the colorimetric determinations <<L a b>>, the L value determines the contrast of the skin. If the L value drops, the skin appears darker.
ITA is defined as arctan g[(L−50)/b]. If the ITA index increases, the skin appears paler.

[4] = Colouring test on merino wool balls; conditions: 1 mmol in 100 ml buffer (pH 7)/ethylene glycol 6/94, RT, 24 h, then washed and dried
Protocol: 1 mmol of each of DHA and the glucuronolactone derivatives are weighed out into a 100 ml conical flask with ground-glass joint:
(2) Glucuronolactone: 176 mg
(3) Compound (Ia): 216 mg
(4) Compound (Ic): 264 mg
A merino wool ball with the size of a grape and a magnetic stirrer are then added to each conical flask.
A mixture of 6% by vol. of buffer (ph7) and 94% by vol. of ethylene glycol is then prepared, 100 ml of this mixture are added to each conical flask and stirred at RT for 24 h.
After 24 h, the wool balls are washed firstly with water, then with warm washing-powder solution and again with water and dried.
This colouring result can also be applied to hair, since merino wool, like hair, is built up from proteins (keratins) and the outermost layer is in each case the cuticle.

In the case of `CC1(C)OC2OC3C(O)C(=O)OC3C2O1` (stereo not shown) [Compound Ia, glucuronolactone acetonide], the “L*” value [1] is reported as 82.6, the “a*” value [1] is reported as 29.4 and the “b*” value [1] is reported as 103.7. For the same compound, the “L values compared with erythrulose (darker colour)” value (from here on “L values compared with erythrulose”) [1] was “lower L values than erythrulose”, the “odour of the formulation” value [2] was “produce no odour” and the “Day 5 (ITA value)” value ([3]; 1% solution) was −2%. The “Day 5 (ITA value)” value ([3]; 4% solution) was −5%, the colour effect ([3]; identical concentration in the test formulation) was “comparable to erythrulose” and the “colouration of wool samples compared with the untreated sample” value [4] was “yellow colouration”.

For `COC1OC2C(O)C(=O)OC2C1O` (stereo not shown) [Compound Ib], the “L*” value [1] was 81.1, the “a*” value [1] was 30.8 and the “b*” value [1] was 103.8. The “L values compared with erythrulose” value [1] was “lower L values than erythrulose”.

With `O=C1OC2C3OC(c4ccccc4)OC3OC2C1O` [Compound Ic, 1,2-O—(R,S)-(Benzylidene)-α-D-glucofuranurono-6,3-lactone] the “L*” value [1] was 68.0, the “a*” value [1] was 55.2 and the “b*” value [1] was 109.6. The “L values compared with erythrulose” value [1] was “lower L values than erythrulose” and the “colouration of wool samples compared with the untreated sample” value [4] was “yellow colouration”.

In the case of `COc1ccc(C2OC3OC4C(O)C(=O)OC4C3O2)cc1` [Compound Ie, 1,2-O—(R,S)-(4-Methoxybenzylidene)-α-D-glucofuranurono-6,3-lactone], the “L*” value [1] is reported as 76.4, the “a*” value [1] is reported as 39.1 and the “b*” value [1] is reported as 106.7. The “L values compared with erythrulose” value [1] was “lower L values than erythrulose”.

In the case of `COc1cc(C2OC3OC4C(O)C(=O)OC4C3O2)ccc1O` [Compound Ig, 1,2-O—(R,S)-(4-hydroxy-3-methoxybenzylidene)-α-D-glucofuranurono-6,3-lactone], the “L*” value [1] is reported as 80.9, the “a*” value [1] is reported as 32.0 and the “b*” value [1] is reported as 100.0. For the same compound, the “L values compared with erythrulose” value [1] was “lower L values than erythrulose” and the melting point was 82 °C.

For `O=C(CO)CO` [DHA, 1,3-dihydroxyacetone, reference compound], the “L*” value [1] was 46.7, the “a*” value [1] was 27.2 and the “b*” value [1] was 69.4. The “odour of the formulation” value [2] was “developed the typical DHA odour”, the “Day 5 (ITA value)” value ([3]; 1% solution) was −15% and the “colouration of wool samples compared with the untreated sample” value [4] was “no colouration”.

With `O=C(CO)[C@H](O)CO` [Erythrulose, reference compound] the “L*” value [1] was 92.6, the “a*” value [1] was 4.8 and the “b*” value [1] was 35.8. For the same compound, the “Day 5 (ITA value)” value ([3]; 4% solution) was −5%.

With `O=C[C@H](O)[C@H]1OC(=O)[C@@H](O)[C@H]1O` [Glucuronolactone] the “L*” value [1] was 96.1, the “a*” value [1] was 4.3 and the “b*” value [1] was 45.9. For the same compound, the “odour of the formulation” value [2] was “produce no odour”, the “Day 5 (ITA value)” value ([3]; 1% solution) was −3% and the “colouration of wool samples compared with the untreated sample” value [4] was “no colouration”.
